From patent publication US9751861B2, “N1-(3,3,3-trifluoro-2-hydroxo-2-methylpropionyl)-piperidine derivatives as inhibitors of pyruvate dehydrogenase kinase” (MERCK PATENT GMBH, priority 2013, dated 2017)

What was measured:
PDHK2 = molecular target: T1, PDHK2 (Homo sapiens, UniProt Q15119); experiment: Biochemical activity testing of PDHK2: PDC inactivation assay; conditions: human rec PDHK2, PDC from porcine heart, ATP 5 μM; read-out: IC50 PDHK2 (enzyme assay)
T1 construct: purchased Carna Bioscience
How it was run: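 Human recombinant PDHK2 (137 nM final) preincubated 30 min at RT with porcine heart PDC (20 mU/ml) and compound in pH 7.0 phosphate buffer, then phosphorylated with 5 μM ATP for 30 min at 37 °C. Residual PDC activity read as NADH fluorescence increase (Ex 340/Em 450) over 45 min; inhibitor-free reaction as full value, 3 mM DCA as zero, IC50 derived.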

PDH-Elalpha (pSer300) = experiment: Cellular immunofluorescence assay in HEK293T cells; type: cell-based; conditions: Homo sapiens, HEK-293T, 5 hours incubation, anti-PDH-E1alpha pSer300 immunofluorescence, read-out: IC50 (cell data)
How it was run: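 HEK293T cells were exposed to compound for 5 hours, then fixed, permeabilised and immunostained for PDH-Elalpha pSer300 with Hoechst counterstain, read by laser scanning cytometry. Percent effect was normalized to a pharmacological inhibitor control and fitted to dose-response curves.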

human PDHK2 (12-407) = molecular target: T2, human PDHK2 (12-407) (Homo sapiens, UniProt Q15119); experiment: Isothermal titration calorimetry (ITC) binding; conditions: 30° C., pH 7.5
T2 construct: The human PDHK2 (12-407) was produced in E. coli; His-tag (cleaved yes); made in house; host or cells: E. coli
How it was run: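 Untagged PDHK2 (12-407) from E. coli at 50 μM titrated into 5 μM compound at 30° C in pH 7.5 HEPES/KCl/MgCl2/phosphate buffer, ≤1% DMSO. One-site fit gave KA, ΔH^obs and N after heat-of-dilution correction; protein concentration referenced to a standard inhibitor and compound concentration adjusted to 1:1 stoichiometry.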

Structure (SMILES) | IC50 (PDHK2) [nM] | IC50 (PDH-Elalpha (pSer300)) [nM] | Kd (human PDHK2 (12-407)) [nM]
C[C@@](O)(C(=O)N1CCC(c2cncn2-c2ccc(C(F)(F)F)cc2)CC1)C(F)(F)F [Compound A127, (R)-3,3,3-Trifluoro-2-hydroxy-2-methyl-1-{4-[3-(4-trifluoromethyl-phenyl)-3H-imidazol-4-yl]-piperidin-1-yl}-propan-1-one] | 300 to 3000 | 300 to 3000 | < 300
C[C@@](O)(C(=O)N1CCC(c2ccnn2-c2ccccc2Cl)CC1)C(F)(F)F [Compound A11, (R)-1-{4-[2-(2-Chloro-phenyl)-2H-pyrazol-3-yl]-piperidin-1-yl}-3,3,3-trifluoro-2-hydroxy-2-methyl-propan-1-one] | < 300 | 300 to 3000 | < 300
COc1ccc(-n2cncc2C2CCN(C(=O)[C@@](C)(O)C(F)(F)F)CC2)cc1 [Compound A131, (R)-3,3,3-Trifluoro-2-hydroxy-1-{4-[3-(4-methoxy-phenyl)-3 H-imidazol-4-yl]-piperidin-1-yl}-2-methyl-propan-1-one] | 300 to 3000 | 300 to 3000 | < 300
C[C@@](O)(C(=O)N1CCC(c2ccnn2-c2ccc(C(F)(F)F)cc2)CC1)C(F)(F)F [Compound A27, (R)-3,3,3-Trifluoro-2-hydroxy-2-methyl-1-{4-[2-(4-trifluoromethyl-phenyl)-2H-pyrazol-3-yl]-piperidin-1-yl}-propan-1-one] | < 300 | 300 to 3000 | < 300
Cc1cccc(-n2nccc2C2CCN(C(=O)[C@@](C)(O)C(F)(F)F)CC2)c1 [Compound A6, (R)-3,3,3-Trifluoro-2-hydroxy-2-methyl-1-[4-(2-m-tolyl-2H-pyrazol-3-yl)-piperidin-1-yl]-propan-1-one] | 300 to 3000 | 300 to 3000 | < 300
CC(C)(C)n1nccc1C1CCN(C(=O)[C@@](C)(O)C(F)(F)F)CC1 [Compound A17, (R)-1-[4-(2-tert-Butyl-2H-pyrazol-3-yl)-piperidin-1-yl]-3,3,3-trifluoro-2-hydroxy-2-methyl-propan-1-one] | 300 to 3000 | 300 to 3000 | < 300
C[C@@](O)(C(=O)N1CCC(c2ccnn2-c2ccc(OC(F)(F)F)cc2)CC1)C(F)(F)F [Compound A95, (R)-3,3,3-Trifluoro-2-hydroxy-2-methyl-1-[4-[2-[4-(trifluoromethoxy)-phenyl]-2H-pyrazol-3-yl]-1-piperidyl]propan-1-one] | < 300 | 300 to 3000 | < 300
COc1ccc(-n2nccc2C2CCN(C(=O)[C@@](C)(O)C(F)(F)F)CC2)cc1Cl [Compound A48, (R)-3,3,3-Trifluoro-2-hydroxy-1-{4-[2-(3-chloro-4-methoxy-phenyl)-2H-pyrazol-3-yl]-piperidin-1-yl}-2-methyl-propan-1-one] | < 300 | 300 to 3000 | < 300
C[C@@](O)(C(=O)N1CCC(c2ccnn2-c2ncc(Br)cn2)CC1)C(F)(F)F [Compound A19, (R)-1-{4-[2-(5-Bromo-pyrimidin-2-yl)-2H-pyrazol-3-yl]-piperidin-1-yl}-3,3,3-trifluoro-2-hydroxy-2-methyl-propan-1-one] | 300 to 3000 | 300 to 3000 | < 300
COc1ccc(-n2nccc2C2CCN(C(=O)[C@@](C)(O)C(F)(F)F)CC2)c(F)c1 [Compound A28, (R)-3,3,3-Trifluoro-1-{4-[2-(2-fluoro-4-methoxy-phenyl)-2H-pyrazol-3-yl]-piperidin-1-yl}-2-hydroxy-2-methyl-propan-1-one] | < 300 | 300 to 3000 | < 300
C[C@@](O)(C(=O)N1CCC(c2ccnn2CC(F)(F)F)CC1)C(F)(F)F [Compound A77, (R)-3,3,3-Trifluoro-2-hydroxy-2-methyl-1-{4-[2-(2,2,2-trifluoro-ethyl)-2H-pyrazol-3-yl]-piperidin-1-yl}-propan-1-one] | 3000 to 50000 | 3000 to 50000 | 300 to 3000
CC(C)(O)c1ccc(-n2nccc2C2CCN(C(=O)[C@@](C)(O)C(F)(F)F)CC2)cc1 [Compound A20, (R)-3,3,3-Trifluoro-2-hydroxy-1-(4-{2-[4-(1-hydroxy-1-methyl-ethyl)-phenyl]-2H-pyrazol-3-yl}-piperidin-1-yl)-2-methyl-propan-1-one] | < 300 | 300 to 3000 | < 300
CC1CN(C(=O)[C@@](C)(O)C(F)(F)F)CCC1c1ccn(-c2ccc(F)cc2)n1 (stereo partly drawn) [Compound A44, (R)-1-{4-[1-(4-Fluoro-phenyl)-1H-pyrazol-3-yl]-3-methyl-piperidin-1-yl}-3,3,3-trifluoro-2-hydroxy-2-methyl-propan-1-one] | 300 to 3000 | 300 to 3000 | < 300
COc1ccc(-n2nccc2[C@H]2CCN(C(=O)[C@@](C)(O)C(F)(F)F)C[C@H]2C)cc1 [Compound A110, (R)-3,3,3-Trifluoro-1-{(3S,4S)-4-[2-(4-methoxy-phenyl)-2H-pyrazol-3-yl]-3-methyl-piperidin-1-yl}-2-hydroxy-2-methyl-propan-1-one] | < 300 | < 300 | < 300
C[C@@](O)(C(=O)N1CCC(c2ccnn2-c2ccc(C#N)cc2)CC1)C(F)(F)F [Compound A9, 4-{5-[1-((R)-3,3,3-Trifluoro-2-hydroxy-2-methyl-propionyl)-piperidin-4-yl]-pyrazol-1-yl}-benzonitrile] | 300 to 3000 | 300 to 3000 | < 300
C[C@@](O)(C(=O)N1CCC(c2ccnn2-c2ccc(F)cc2Cl)CC1)C(F)(F)F [Compound A39, (R)-1-{4-[2-(2-Chloro-4-fluoro-phenyl)-2H-pyrazol-3-yl]-piperidin-1-yl}-3,3,3-trifluoro-2-hydroxy-2-methyl-propan-1-one] | < 300 | 300 to 3000 | < 300
C[C@@](O)(C(=O)N1CCC(n2c(-c3ccccc3F)n[nH]c2=O)CC1)C(F)(F)F [Compound A54, 5-(2-Fluoro-phenyl)-4-[1-((R)-3,3,3-trifluoro-2-hydroxy-2-methyl-propionyl)piperidin-4-yl]-2,4-dihydro-[1,2,4]triazol-3-one] | 300 to 3000 | 3000 to 50000 | 300 to 3000
C[C@@](O)(C(=O)N1CCC(n2cncc2-c2ccccc2)CC1)C(F)(F)F [Compound A63, (2R)-3,3,3-trifluoro-2-hydroxy-2-methyl-1-[4-(5-phenylimidazol-1-yl)-1-piperidyl]propan-1-one] | 300 to 3000 | 3000 to 50000 | < 300
C[C@@](O)(C(=O)N1CCC(c2ccnn2-c2cccc(Cl)c2F)CC1)C(F)(F)F [Compound A15, (R)-1-{4-[2-(3-Chloro-2-fluoro-phenyl)-2H-pyrazol-3-yl]-piperidin-1-yl}-3,3,3-trifluoro-2-hydroxy-2-methyl-propan-1-one] | < 300 | < 300 | < 300
C[C@@](O)(C(=O)N1CCC(c2ccnn2C2CCCCC2)CC1)C(F)(F)F [Compound A37, (R)-1-[4-(2-Cyclohexyl-2H-pyrazol-3-yl)-piperidin-1-yl]-3,3,3-trifluoro-2-hydroxy-2-methyl-propan-1-one] | 300 to 3000 | 3000 to 50000 | < 300
CC(C)c1ccc(-n2nccc2C2CCN(C(=O)[C@@](C)(O)C(F)(F)F)CC2)cc1 [Compound A22, (R)-3,3,3-Trifluoro-2-hydroxy-1-{4-[2-(4-isopropyl-phenyl)-2H-pyrazol-3-yl]-piperidin-1-yl}-2-methyl-propan-1-one] | 300 to 3000 | 300 to 3000 | < 300
C[C@@](O)(C(=O)N1CCC(c2ccnn2-c2ccc(OCC(F)(F)F)cc2)CC1)C(F)(F)F [Compound A49, (R)-3,3,3-Trifluoro-2-hydroxy-2-methyl-1-(4-{2-[4-(2,2,2-trifluoro-ethoxy)phenyl]-2H-pyrazol-3-yl}-piperidin-1-yl)-propan-1-one] | < 300 | 300 to 3000 | < 300
Cn1cc(-n2nccc2C2CCN(C(=O)[C@@](C)(O)C(F)(F)F)CC2)cn1 [Compound A85, (R)-3,3,3-Trifluoro-2-hydroxy-2-methyl-1-[4-[2-(1-methylpyrazol-4-yl)-2H-pyrazol-3-yl]-1-piperidyl]propan-1-one] | 300 to 3000 | 3000 to 50000 | < 300
C[C@@](O)(C(=O)N1CCC(c2ccnn2-c2ccc(Cl)cc2)CC1)C(F)(F)F [Compound A13, (R)-1-{4-[2-(4-Chloro-phenyl)-2H-pyrazol-3-yl]-piperidin-1-yl}-3,3,3-trifluoro-2-hydroxy-2-methyl-propan-1-one] | < 300 | 300 to 3000 | < 300
C[C@@](O)(C(=O)N1CCC(c2ccnn2-c2ccc(C(F)(F)F)nc2)CC1)C(F)(F)F [Compound A80, (R)-3,3,3-Trifluoro-2-hydroxy-2-methyl-1-[4-[2-[6-(trifluoromethyl)-3-pyridyl]-2H-pyrazol-3-yl]-1-piperidyl]propan-1-one] | 300 to 3000 | 3000 to 50000 | < 300
